Biological target: T1, human recombinant COX-2 (Homo sapiens, UniProt P35354)
T1 sequence (P35354 18-604): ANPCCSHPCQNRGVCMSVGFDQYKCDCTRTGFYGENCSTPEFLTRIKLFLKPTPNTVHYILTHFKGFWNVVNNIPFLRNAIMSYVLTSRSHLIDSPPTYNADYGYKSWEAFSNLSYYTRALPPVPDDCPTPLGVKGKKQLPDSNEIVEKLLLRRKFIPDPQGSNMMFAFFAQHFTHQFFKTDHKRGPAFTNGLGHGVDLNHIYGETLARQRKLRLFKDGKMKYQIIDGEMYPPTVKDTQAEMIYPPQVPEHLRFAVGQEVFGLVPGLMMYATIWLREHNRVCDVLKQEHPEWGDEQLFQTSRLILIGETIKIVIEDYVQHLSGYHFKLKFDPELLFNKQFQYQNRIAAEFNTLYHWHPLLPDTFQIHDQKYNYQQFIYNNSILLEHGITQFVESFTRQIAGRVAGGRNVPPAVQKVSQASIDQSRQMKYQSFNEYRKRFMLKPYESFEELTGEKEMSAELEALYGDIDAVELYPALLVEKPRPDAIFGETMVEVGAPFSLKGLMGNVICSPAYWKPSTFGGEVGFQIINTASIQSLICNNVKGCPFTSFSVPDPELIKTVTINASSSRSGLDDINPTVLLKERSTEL
Type: biochemical
Details: COX-1 IC50/COX-2 IC50

Selectivity index (S.I.): 508
Structure (SMILES): Cc1ccc(Nc2c(-c3ccc(S(C)(=O)=O)cc3)nc3c(C)cccn23)cc1 [Compound 5n, 8-Methyl-2-(4-(methylsulfonyl)phenyl)-N-(p-tolyl)imidazo[1,2-a]pyridin-3-amine]

— publication PMC9977638 (Medicinal Chemistry Research, 2023)
